US5359063A, “Heterocyclene derivatives” (Imperial Chemical Industries PLC, priority 1990, dated 1994)

Experiments:
5-LO [1] = assay: Test b) LTB4 in heparinised human blood challenged with calcium ionophore A23187 (radioimmunoassay); type: cell-based
Experimental: b) An in vitro assay system involving incubating a test compound with heparinised human blood, prior to challenge with the calcium ionophore A23187 and then indirectly measuring the inhibitory effects on 5-LO by assaying the amount of LTB4 using specific radioimmunoassays described by Carey and Forder (F. Carey and R. A. Forder, Prostaglandins, Leukotrienes Med., 1986, 22, 57; Prostaglandins, 1984, 28, 666; Brit. J. Pharmacol. 1985, 84, 34P) which involve the use of a protein-LTB4 conjugate produced using the procedure of Young et alia (Prostaglandins, 1983, 26(4), 605-613). The effects of a test compound on the enzyme cyclooxygenase (which is involved in the alternative metabolic pathway for arachidonic acid and gives rise to prostaglandins, thromboxanes and related metabolites) may be measured at the same time using the specific radioimmunoassay for thromboxane B2 (TxB2) described by Carey and Forder (see above). This test provides an indication of the effects of a test compound against 5-LO and also cyclooxygenase in the presence of blood cells and proteins. It permits the selectivity of the inhibitory effect on 5-LO or cyclooxygenase to be assessed.

5-LO [2] = assay: Test g) LTB4 liberation induced by zymosan within an air pouch in male rats; type: in vivo; settings: 3 h; test g), rat air pouch, oral
Experimental: g) An in vivo system involving measuring the effects of a test compound administered orally against the liberation of LTB4 induced by zymosan within an air pouch generated within the subcutaneous tissue of the back of male rats. The rats are anaesthetised and air pouches are formed by the injection of sterile air (20 ml). A further injection of air (10 ml) is similarIv given after 3 days. At 6 days after the initial air injection the test compound is administered (usually orally as the suspension produced when a solution of the test compound in dimethylsulphoxide is added to hydroxypropylmethylcellulose), followed by the intrapouch injection of zymosan (1 ml of a 1% suspension in physiological saline). After 3 hours the rats are killed, the air pouches are lavaged with physiological saline, and the specific radioimmunoassay described above is used to assay LTB4 in the washings. This test provides an indication of inhibitory effects against 5-LO in an inflammatory milieu.

Row | Structure (SMILES) | IC50 (5-LO [1]) [nM] | ED50 (5-LO [2]) [mg/kg]
1 | COC1(c2ccc(Sc3ccc(C(C)(C)C)cc3)s2)CCOCC1 [4-[5-(4-tert-butylphenylthio)thien-2-yl]-4-methoxytetrahydropyran] | 150 | 1.5
2 | COC1(c2ccc(Sc3ccc4c(c3)CCC(=O)N4C)s2)CCOCC1 [4-methoxy-4-[5-(1-methyl-2-oxo-1,2,3,4-tetrahydroquinolin-6-ylthio)thien-2-yl]tetrahydropyran] | 40 | < 1.5
